These results are taken from paper PMC10689823, “Discovery of a Drug-like, Natural Product-Inspired DCAF11 Ligand Chemotype” (Nature Communications, 2023).

In experiment [1] the test system is BRD2. The experiment in a line: In-Cell Western for BRD2 levels in Hep G2 cells. It is filed as cell-based. As to conditions: then 9 (10 μM, 4 h). How it is done: Hep G2 cells were seeded in 96-well plates and incubated for 24 h. Compounds were added for the indicated time at the indicated concentration. Cells were then washed once with PBS and fixed with 4% paraformaldehyde for 30 min at room temperature. The fixed cells were permeabilized with 0.5 % Triton-X100 for 15 min followed by block with Intercept® Blocking Buffer (LI-COR Biosciences, 927-70001) for 1 h at room temperature. Primary antibodies for BRD2 (1:800) and Vinculin (1:2000) were diluted with LI-COR buffer and incubated with the cells at 4 °C overnight. Cells were washed with PBS-T, and the secondary antibodies conjugated to IRDye (1:1000, LI-COR Biosciences) were added to the cells for 1 h at room temperature. After washing the cells, the signal was recorded with the Odyssey® CLx Infrared Imaging System (LI-COR Biosciences) and the protein levels were analyzed by Image Studio (LI-COR Biosciences). BRD2 protein levels were normalized to the levels of reference protein vinculin.

Experiment [2] addresses T1, SIRT1 (Homo sapiens, UniProt Q96EB6).
T1 construct: purchased BPS Bioscience 50081 (assay kit)
The experiment in a line: SIRT activity assay SIRT1. As to conditions: SIRT1 activity in presence of 3 µM compound 42. It is filed as biochemical. How it is done: (§1) In vitro enzymatic SIRT assays were performed by BPS Bioscience for SIRT1, SIRT2, SIRT3, SIRT5 and SIRT6 using the respective SIRT Fluorogenic Assay Kit (BPS Bioscience, catalog numbers 50081, 50087, 50088, 50085 and 50022). The compound was pre-incubated in for 30 min at room temperature in a mixture containing SIRT assay buffer, 5 μg BSA, SIRT enzyme. Afterwards, the enzymatic reaction was initiated by the addition of SIRT substrate to a final concentration of 10 μM. The enzymatic reaction proceeded for 30 min at 37 °C followed by the addition of 2 x SIRT Developer and incubation at room temperature for 15 min. Fluorescence intensity was measured at an ex/em 360/460 nm using a Tecan Infinite M1000 microplate reader.

Experiment [3] deals with T2, SIRT2 (Homo sapiens, UniProt Q8IXJ6).
T2 construct: purchased BPS Bioscience 50087 (assay kit)
Nature of the experiment: SIRT activity assay SIRT2. It is filed as biochemical. As to conditions: SIRT2 activity in presence of 3 µM compound 42. As to the method: as §1

Experiment [4] has as its target T3, SIRT3 (Homo sapiens, UniProt Q9NTG7).
T3 construct: purchased BPS Bioscience 50088 (assay kit)
The experiment in a line: SIRT activity assay SIRT3. It is filed as biochemical. The note with it: SIRT3 activity in presence of 3 µM compound 42. As to the method:
as §1

For experiment [5], the target named is T4, SIRT5 (Homo sapiens, UniProt Q9NXA8).
T4 construct: purchased BPS Bioscience 50085 (assay kit)
Nature of the experiment: SIRT activity assay SIRT5. It is filed as biochemical. The note with it: SIRT5 activity in presence of 3 µM compound 42. As to the method:
as §1

Experiment [6] concerns the target T5, SIRT6 (Homo sapiens, UniProt Q8N6T7).
T5 construct: purchased BPS Bioscience 50022 (assay kit)
Nature of the experiment: SIRT activity assay SIRT6. It is filed as biochemical. As to conditions: SIRT6 activity in presence of 3 µM compound 42. How it is done: as §1

Experiment [7] concerns wildtype and mutant 482 kinases. The experiment in a line: Kinase profiling (SelectScreen). The note with it: 10 µM; panel of 482 wildtype and mutant kinases. It is filed as biochemical. How it is done: Compound 42 was profiled in duplicate at 10 µM against wildtype and mutant 482 kinases using the SelectScreen Kinase profiling services (ThermoFisher Scientific, USA) using enzymatic assays (Z’-Lyte and Adapta technology) or binding assays (LanthaScreen Eu kinase binding assays) (see https://www.thermofisher.com/de/de/home/products-and-services/services/custom-services/screening-and-profiling-services/selectscreen-profiling-service/selectscreen-kinase-profiling-service.html).

The target in experiment [8] is T6, BLK (Homo sapiens, UniProt P51451).
T6 construct: endogenous in cells; host or cells: Ramos
Nature of the experiment: BLK levels by Western blot in Ramos cells. It is filed as cell-based. As to the method:
(§2) Cells were washed with PBS and lysed in lysis buffer (50 mM Tris-HCl, pH 7.4, 150 mM NaCl, 1% Triton X-100, 1% sodium deoxycholate, 0.1% SDS) with complete protease inhibitor cocktail (Roche, 11836170001) for 30 min on ice. For Ramos cells, cell pellets were lysed in lysis buffer (50 mM Tris-HCl, pH 8, 150 mM NaCl, 1% NP-40, 0.5% sodium deoxycholate) with complete protease inhibitor cocktail. After centrifugation at 16,000 x g, the supernatant was transferred into a new tube and the protein concentration was determined by DC protein assay (BIO-RAD, 5000116). Proteins were separated by SDS-PAGE and transferred to a PVDF membrane (Thermo scientific, 0.45 μm, 88518). For PDEδ, BRD2, GAPDH, BRD4, Vinculin and BTK, the membranes were blocked with Intercept® Blocking Buffer (LI-COR Biosciences, 927-70001) at room temperature for 1 h. The primary antibodies for these proteins were diluted with Intercept® Blocking Buffer (1:500 for PDEδ, 1:3000 for Vinculin, and 1:1000 for other proteins) and incubated with the membranes overnight at 4 °C. Membranes were washed with PBS + 0.1% Tween 20 (PBS-T) five times and incubated with secondary antibodies conjugated to IRDye® Infrared Fluorescent Dyes (1:5000, LI-COR Biosciences) at room temperature for 1 h with protection from light. After washing the membrane, signals were visualized using the ChemiDoc MP Imaging System (BIO-RAD Laboratories). For detection of LC3B, BRD3, BLK, DCAF11, DDB1 RBX1, FIP200, V5- and FLAG-Tag the membranes were blocked with 5% milk in PBS-T at room temperature for 1 h. The primary antibodies for these proteins were diluted in 5% milk in PBS-T buffer (1:200 for BRD3, 1:1000 for other proteins) and incubated with the membranes overnight at 4 °C. Membranes were washed with PBS-T five times and incubated with HRP secondary antibodies (1:1500) at room temperature for 1 h. After washing the membrane, protein detection was performed using Western blotting detection reagent (Thermo Scientific, 34095) and the ChemiDoc MP Imaging System (BIO-RAD). Relative band intensities were quantified using Image Lab (BIO-RAD).

Experiment [9] deals with T7, BTK (Homo sapiens, UniProt Q06187).
T7 construct: endogenous in cells; host or cells: Ramos
Nature of the experiment: BTK levels by Western blot in Ramos cells. It is filed as cell-based. The note with it: 6 h. As to the method: as §2, with “After washing the membrane, signals were visualized using the ChemiDoc MP Imaging System (BIO-RAD Laboratories). For detection of LC3B, BRD3, BLK, DCAF11, DDB1 RBX1, FIP200, V5- and FLAG-Tag the membranes were blocked with 5% milk in PBS-T at room temperature for 1 h. The primary antibodies for these proteins were diluted in 5% milk in PBS-T buffer (1:200 for BRD3, 1:1000 for other proteins) and incubated with the membranes overnight at 4 °C. Membranes were washed with PBS-T five times and incubated with HRP secondary antibodies (1:1500) at room temperature for 1 h. After washing the membrane, protein detection was performed using Western blotting detection reagent (Thermo Scientific, 34095) and the ChemiDoc MP Imaging System (BIO-RAD).” left out

Values joined by “and” are separate entries in the source; they are usually repeats but may differ in a detail not shown here. Identical values can stand only once.

T6 sequence (P51451 whole entry): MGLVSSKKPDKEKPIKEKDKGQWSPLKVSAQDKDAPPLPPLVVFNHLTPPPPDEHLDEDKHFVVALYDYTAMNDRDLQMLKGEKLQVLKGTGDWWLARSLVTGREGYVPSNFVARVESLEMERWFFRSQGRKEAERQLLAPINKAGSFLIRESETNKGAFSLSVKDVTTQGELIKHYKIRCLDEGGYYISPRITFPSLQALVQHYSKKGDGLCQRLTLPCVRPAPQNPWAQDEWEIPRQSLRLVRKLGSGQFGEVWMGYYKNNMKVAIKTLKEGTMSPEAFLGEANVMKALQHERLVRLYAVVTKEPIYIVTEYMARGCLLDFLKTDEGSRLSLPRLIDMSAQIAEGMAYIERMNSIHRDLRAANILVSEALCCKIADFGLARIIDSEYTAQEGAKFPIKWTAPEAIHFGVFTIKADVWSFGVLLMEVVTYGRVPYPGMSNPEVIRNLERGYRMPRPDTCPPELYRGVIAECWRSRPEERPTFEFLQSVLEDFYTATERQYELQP
T3 sequence (Q9NTG7 whole entry): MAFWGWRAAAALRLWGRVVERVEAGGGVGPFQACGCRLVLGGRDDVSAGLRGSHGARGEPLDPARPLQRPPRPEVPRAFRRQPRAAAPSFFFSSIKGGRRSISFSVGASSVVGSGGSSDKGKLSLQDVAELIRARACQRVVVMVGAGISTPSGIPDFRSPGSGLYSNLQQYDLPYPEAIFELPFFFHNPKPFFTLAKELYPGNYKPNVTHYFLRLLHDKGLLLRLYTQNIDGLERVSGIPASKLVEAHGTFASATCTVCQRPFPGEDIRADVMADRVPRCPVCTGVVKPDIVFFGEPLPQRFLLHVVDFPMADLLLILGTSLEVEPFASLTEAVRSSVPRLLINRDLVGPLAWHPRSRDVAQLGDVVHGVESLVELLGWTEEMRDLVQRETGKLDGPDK
T2 sequence (Q8IXJ6 whole entry): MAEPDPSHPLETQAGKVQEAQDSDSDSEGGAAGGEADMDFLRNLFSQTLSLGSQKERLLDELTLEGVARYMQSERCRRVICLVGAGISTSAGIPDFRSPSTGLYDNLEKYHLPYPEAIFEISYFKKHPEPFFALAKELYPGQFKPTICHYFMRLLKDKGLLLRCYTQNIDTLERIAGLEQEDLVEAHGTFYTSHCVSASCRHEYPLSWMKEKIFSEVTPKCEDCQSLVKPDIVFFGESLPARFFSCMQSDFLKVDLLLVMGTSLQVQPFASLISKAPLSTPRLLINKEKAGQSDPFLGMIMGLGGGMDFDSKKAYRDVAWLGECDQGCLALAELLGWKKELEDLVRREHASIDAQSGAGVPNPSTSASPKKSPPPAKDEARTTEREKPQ
T4 sequence (Q9NXA8 37-310): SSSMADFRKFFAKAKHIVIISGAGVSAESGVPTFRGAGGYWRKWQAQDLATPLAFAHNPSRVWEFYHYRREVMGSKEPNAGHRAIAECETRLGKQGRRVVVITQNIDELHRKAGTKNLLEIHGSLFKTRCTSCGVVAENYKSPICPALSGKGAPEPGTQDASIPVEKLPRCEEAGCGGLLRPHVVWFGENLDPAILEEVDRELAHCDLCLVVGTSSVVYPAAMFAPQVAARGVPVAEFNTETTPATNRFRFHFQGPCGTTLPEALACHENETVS
T5 sequence (Q8N6T7 whole entry): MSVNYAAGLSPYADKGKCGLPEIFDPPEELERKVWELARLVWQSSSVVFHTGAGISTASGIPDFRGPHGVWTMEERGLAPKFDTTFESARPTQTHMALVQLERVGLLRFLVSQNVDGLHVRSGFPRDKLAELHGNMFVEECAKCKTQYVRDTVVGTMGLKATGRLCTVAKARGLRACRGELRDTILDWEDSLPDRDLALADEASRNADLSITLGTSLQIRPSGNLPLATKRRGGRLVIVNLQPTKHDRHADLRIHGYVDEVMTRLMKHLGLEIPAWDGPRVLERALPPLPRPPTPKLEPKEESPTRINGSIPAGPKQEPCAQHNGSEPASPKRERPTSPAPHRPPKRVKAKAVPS
T1 sequence (Q96EB6 whole entry): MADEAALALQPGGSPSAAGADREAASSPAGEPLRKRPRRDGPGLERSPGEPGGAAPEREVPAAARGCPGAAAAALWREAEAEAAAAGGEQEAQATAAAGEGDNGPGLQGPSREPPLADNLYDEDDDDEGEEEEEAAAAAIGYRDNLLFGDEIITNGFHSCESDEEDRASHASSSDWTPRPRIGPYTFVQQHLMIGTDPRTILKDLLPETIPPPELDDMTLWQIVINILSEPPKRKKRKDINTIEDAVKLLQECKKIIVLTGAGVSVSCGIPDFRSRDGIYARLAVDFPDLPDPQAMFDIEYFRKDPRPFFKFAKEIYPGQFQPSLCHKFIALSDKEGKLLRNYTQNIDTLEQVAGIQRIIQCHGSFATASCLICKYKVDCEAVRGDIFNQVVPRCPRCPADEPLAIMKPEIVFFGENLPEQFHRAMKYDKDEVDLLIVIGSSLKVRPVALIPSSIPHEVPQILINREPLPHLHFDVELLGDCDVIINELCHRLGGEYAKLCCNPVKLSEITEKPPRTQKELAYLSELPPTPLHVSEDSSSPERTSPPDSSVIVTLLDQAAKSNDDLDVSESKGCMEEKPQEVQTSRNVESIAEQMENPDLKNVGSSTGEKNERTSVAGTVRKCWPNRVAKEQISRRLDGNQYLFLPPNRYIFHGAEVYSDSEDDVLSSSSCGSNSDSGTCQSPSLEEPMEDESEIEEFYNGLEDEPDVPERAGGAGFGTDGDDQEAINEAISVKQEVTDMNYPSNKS
T7 sequence (Q06187 whole entry): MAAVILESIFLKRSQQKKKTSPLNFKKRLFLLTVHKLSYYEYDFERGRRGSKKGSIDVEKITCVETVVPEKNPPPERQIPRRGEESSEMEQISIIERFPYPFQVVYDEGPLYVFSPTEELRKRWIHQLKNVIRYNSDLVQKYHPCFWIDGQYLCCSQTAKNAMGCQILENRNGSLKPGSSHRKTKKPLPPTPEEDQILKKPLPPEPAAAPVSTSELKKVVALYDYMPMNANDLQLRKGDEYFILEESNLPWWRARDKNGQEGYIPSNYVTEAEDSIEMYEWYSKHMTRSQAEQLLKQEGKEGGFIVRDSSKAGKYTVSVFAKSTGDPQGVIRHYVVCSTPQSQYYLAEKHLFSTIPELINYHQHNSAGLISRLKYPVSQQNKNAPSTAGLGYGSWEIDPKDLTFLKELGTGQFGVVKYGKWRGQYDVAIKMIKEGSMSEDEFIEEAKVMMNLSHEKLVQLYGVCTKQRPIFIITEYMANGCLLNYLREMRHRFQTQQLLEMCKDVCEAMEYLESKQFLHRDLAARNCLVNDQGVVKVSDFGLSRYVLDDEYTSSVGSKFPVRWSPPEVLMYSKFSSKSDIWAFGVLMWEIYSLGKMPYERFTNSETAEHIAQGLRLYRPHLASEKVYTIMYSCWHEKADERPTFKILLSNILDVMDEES

On to `O=C1Nc2ccc(Br)cc2C1=Cc1cc(Br)c(OCCO)c(Br)c1` [Compound 42], for which, in experiment [1] (Hep G2 cells, pretreated with compound at 30 μM 1 h, single repeats, Fig. 4h), the “BRD2/Vinculin intensity (relative to control group)” value is 46.6052 and 52.1075 and 59.9094 and 63.5387. Further, the “Value (Mean ± SD): Relative BRD2 levels remaining in Hep G2 cells after treatment with compounds followed by treatment with 9, with DMSO control for normalization” value in experiment [1] (qualitative ICW assay, pretreated at 30 μM 1 h, Supplementary Table 1) amounted to 55.54 ± 6.61. Further, the “Activity [%] (N=1)” value is recorded as 93% in experiment [2]; 104% in [3]; 67% in [4]; 95% in experiment [5]; 87% in [6]. Also, the “Activity [%] (N=2)” value in experiment [2] is recorded as 97%; in [3], 111%; in experiment [4], 67%; in experiment [5], 98%; in experiment [6], 90%. In experiment [7], the “number of wildtype kinases inhibited by more than 50 %” value was “seven”.
Consider `Nc1ncnc2c1c(-c1ccc(Oc3ccccc3)cc1)nn2C1CCN(CC(=O)NCCOCCOCCOCCOCCNC(=O)COc2c(Br)cc(/C=C3\C(=O)Nc4ccc(Br)cc43)cc2Br)CC1` [Compound 13], for which the “BLK/Vinculin intensity (relative to DMSO control group)” value in [8] (3 μM, 6 h, Fig. 2g) was 37.145 and 35.6045 and 46.4487; in [8] (10 μM, 6 h, Fig. 2g) it was 21.4399 and 23.7367 and 36.6727; in experiment [8] (30 μM, 6 h, Fig. 2g), 37.0963 and 39.3424 and 67.6199; in experiment [8] (Ramos cells, pretreated CFZ 1 μM 40 min, then 10 μM, 6h, Fig. 2h) it was 73.6122 and 85.1867 and 106.763; in experiment [8] (Ramos cells, pretreated CQ 50 μM 40 min, then 10 μM, 6h, Fig. 2h), 24.1946 and 36.2698 and 40.4347; in experiment [8] (Ramos cells, pretreated MLN4924 1 μM 40 min, then 10 μM, 6h, Fig. 2h), 110.614 and 82.1333 and 144.155. In addition, the “reduction of BLK levels” value in [8] (Ramos cells, 6 h) is 70%. In addition, in experiment [9], the “reduction of BTK levels” value is reported as 50%.
